Results on three molecules are retold here after US12275731B2, “Azaindole inhibitors of wild-type and mutant forms of LRRK2” (DANA-FARBER CANCER INSTITUTE, INC., priority 2018, dated 2025).

Each structure is given as a SMILES string.

Common to all, as to assay: KinomeScan profiling
Common to all, as to assay type: binding

In assay [1] the target is HIPK1 (Homo sapiens, UniProt Q86Z02). The settings on record: HIPK1, 1 μM; read-out: % control. Put shortly:
(§1)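 Luminescence (RLU) was converted to percent of control, with DMSO set as 100% and a reference compound as 0%. Test compounds were run at 1 μM against 468 kinases. Kinases showing below 35% of control were scored as bound.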

In assay [2] the target is T1, MAP3K15 (Homo sapiens, UniProt Q6ZN16).
T1 sequence (Q6ZN16 1-1313): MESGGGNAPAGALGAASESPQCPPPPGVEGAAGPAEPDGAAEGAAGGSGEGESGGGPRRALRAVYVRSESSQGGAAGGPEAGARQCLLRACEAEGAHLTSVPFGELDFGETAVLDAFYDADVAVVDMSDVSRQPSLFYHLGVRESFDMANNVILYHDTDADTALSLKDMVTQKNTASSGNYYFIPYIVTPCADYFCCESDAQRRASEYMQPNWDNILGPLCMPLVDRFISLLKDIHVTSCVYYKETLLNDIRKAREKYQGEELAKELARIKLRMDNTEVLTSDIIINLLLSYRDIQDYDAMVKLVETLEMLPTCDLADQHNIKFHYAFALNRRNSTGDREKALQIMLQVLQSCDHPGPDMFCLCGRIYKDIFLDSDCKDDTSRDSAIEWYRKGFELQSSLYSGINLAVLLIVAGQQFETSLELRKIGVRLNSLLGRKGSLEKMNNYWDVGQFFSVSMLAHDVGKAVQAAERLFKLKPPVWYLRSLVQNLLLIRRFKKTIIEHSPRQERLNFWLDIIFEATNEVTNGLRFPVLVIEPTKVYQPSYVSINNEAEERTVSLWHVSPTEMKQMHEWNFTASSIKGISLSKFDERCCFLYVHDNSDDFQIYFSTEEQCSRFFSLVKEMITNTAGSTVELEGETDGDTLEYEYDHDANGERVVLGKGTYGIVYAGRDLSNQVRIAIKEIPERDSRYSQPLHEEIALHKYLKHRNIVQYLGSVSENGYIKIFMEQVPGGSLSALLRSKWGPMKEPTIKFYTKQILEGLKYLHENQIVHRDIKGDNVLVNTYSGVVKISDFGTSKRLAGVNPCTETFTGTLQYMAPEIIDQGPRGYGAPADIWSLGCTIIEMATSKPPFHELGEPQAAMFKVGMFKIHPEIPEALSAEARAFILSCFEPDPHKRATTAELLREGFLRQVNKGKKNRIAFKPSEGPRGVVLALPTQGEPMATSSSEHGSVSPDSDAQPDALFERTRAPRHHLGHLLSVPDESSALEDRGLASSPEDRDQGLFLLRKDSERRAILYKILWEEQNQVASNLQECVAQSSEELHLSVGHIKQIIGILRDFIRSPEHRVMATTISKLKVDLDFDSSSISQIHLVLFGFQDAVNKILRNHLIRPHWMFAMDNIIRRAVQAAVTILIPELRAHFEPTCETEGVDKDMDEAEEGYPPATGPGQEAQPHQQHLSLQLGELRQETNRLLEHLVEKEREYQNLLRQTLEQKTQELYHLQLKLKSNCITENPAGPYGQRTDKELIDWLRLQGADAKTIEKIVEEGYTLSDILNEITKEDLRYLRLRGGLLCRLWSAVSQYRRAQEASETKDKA
The conditions noted are these: MAP3K15, 1 μM; read-out: % control. In a few lines:
as §1

For assay [3], the target named is T2, EPHB2 (Homo sapiens, UniProt P29323).
T2 sequence (P29323 19-1055): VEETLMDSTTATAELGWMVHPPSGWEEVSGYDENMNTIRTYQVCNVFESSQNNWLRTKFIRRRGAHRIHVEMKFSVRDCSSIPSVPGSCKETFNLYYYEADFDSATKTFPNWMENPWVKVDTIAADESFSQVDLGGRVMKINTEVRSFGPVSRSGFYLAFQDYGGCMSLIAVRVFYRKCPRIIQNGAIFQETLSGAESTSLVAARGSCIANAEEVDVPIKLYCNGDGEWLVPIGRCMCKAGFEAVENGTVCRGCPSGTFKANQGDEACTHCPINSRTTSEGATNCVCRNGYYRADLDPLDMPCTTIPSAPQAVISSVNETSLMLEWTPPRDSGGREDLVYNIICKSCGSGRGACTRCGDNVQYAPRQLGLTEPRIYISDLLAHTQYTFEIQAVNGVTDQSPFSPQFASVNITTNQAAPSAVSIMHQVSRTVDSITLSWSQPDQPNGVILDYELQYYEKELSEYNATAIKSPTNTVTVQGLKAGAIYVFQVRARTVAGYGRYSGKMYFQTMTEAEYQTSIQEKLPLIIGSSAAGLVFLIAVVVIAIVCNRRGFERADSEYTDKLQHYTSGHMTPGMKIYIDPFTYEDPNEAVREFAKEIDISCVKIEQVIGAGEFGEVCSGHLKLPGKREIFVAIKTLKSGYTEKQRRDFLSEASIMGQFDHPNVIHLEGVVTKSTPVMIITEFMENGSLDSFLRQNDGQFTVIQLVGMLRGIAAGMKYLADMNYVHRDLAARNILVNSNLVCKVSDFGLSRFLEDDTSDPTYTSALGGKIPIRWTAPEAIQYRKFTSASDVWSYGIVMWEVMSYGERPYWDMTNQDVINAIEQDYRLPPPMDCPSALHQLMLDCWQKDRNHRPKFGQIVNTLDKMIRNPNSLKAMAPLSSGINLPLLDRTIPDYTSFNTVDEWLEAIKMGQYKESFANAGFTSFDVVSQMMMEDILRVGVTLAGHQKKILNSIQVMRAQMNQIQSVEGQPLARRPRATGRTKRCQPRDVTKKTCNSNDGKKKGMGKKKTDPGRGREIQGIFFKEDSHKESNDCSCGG
The conditions noted are these: EPHB2, 1 μM; read-out: % control. Put shortly:
as §1

Sequence of HIPK1 (Q86Z02 whole entry): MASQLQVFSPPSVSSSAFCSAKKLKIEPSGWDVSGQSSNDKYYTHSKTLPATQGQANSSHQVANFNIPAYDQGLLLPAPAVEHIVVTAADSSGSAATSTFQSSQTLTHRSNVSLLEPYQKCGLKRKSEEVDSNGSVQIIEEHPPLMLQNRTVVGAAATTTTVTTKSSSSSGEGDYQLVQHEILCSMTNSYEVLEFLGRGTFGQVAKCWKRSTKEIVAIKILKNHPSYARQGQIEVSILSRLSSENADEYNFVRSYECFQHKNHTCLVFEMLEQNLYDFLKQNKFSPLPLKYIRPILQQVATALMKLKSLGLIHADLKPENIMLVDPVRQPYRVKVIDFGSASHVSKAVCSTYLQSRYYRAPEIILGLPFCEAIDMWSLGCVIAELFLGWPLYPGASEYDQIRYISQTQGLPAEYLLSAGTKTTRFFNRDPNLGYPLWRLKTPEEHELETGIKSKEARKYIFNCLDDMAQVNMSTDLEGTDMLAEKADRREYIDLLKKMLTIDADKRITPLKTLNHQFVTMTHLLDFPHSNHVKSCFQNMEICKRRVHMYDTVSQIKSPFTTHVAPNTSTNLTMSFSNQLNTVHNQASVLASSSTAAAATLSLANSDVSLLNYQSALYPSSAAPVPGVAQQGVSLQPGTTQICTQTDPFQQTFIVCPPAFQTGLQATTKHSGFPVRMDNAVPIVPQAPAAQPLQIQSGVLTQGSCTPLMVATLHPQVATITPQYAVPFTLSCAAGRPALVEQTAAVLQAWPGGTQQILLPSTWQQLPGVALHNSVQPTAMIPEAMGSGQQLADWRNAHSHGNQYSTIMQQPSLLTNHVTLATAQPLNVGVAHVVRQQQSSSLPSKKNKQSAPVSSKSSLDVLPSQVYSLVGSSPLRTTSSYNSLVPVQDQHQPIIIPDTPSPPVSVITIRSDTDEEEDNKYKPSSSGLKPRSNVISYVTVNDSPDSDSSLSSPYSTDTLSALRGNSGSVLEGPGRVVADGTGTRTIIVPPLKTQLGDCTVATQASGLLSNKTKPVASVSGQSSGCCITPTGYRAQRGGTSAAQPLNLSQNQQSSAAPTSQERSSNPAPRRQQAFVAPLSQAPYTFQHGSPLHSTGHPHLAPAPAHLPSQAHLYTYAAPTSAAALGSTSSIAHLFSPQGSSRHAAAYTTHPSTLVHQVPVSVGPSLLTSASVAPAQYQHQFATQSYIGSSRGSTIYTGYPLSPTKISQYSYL

Take `CNc1c(-c2cnn([C@H]3CCN(C(C)=O)C[C@@H]3F)c2)cnc2[nH]cc(Cl)c12` [Compound 77, 1-((3S,4S)-4-(4-(3-chloro-4-(methylamino)-1H-pyrrolo[2,3-b]pyridin-5-yl)-1H-pyrazol-1-yl)-3-fluoropiperidin-1-yl)ethan-1-one]: the remaining binding at 1 µM in assay [1] was found to be 70%; in assay [2] it was 1.4%; in assay [3], 98%.
For the molecule `CNc1c(-c2ccc(C(=O)N3CCC(N4CCOCC4)CC3)cc2)cnc2[nH]cc(Cl)c12` [Compound 96, (4-(3-chloro-4-(methylamino)-1H-pyrrolo[2,3-b]pyridin-5-yl)phenyl)(4-morpholinopiperidin-1-yl)methanone], the remaining binding at 1 µM in assay [1] was determined as 68%; in assay [2], 1.8%; in assay [3], 97%.
In the case of `O=C(c1ccc(-c2cnc3[nH]cc(Cl)c3c2NC2CCCC2)cc1)N1CCC(N2CCOCC2)CC1` [Compound 101, (4-(3-chloro-4-(cyclopentylamino)-1H-pyrrolo[2,3-b]pyridin-5-yl)phenyl)(4-morpholinopiperidin-1-yl)methanone], the remaining binding at 1 µM in assay [1] is 92%; in assay [2], 100%; in assay [3] it was 97%.
